Experimental data from PubChem BioAssay (NCI).
“And” between values parts separate entries of the source, which are not always exact repeats. Equal entries are not always repeated.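 48-hour exposure; five concentrations; linearly interpolated endpoints. Abbreviation: GI50, concentration required for 50% inhibition of growth. TGI: total growth inhibition.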

How the values were obtained:
Test in all cases: NCI anticancer screen, dose series, 48 h
K-562 leukemia = test system: K-562 leukemia
786-0 renal = test system: 786-0 renal
MDA-N = test system: MDA-N
SNB-19 CNS = test system: SNB-19 CNS
MDA-MB-435 = test system: MDA-MB-435
SK-MEL-5 melanoma = test system: SK-MEL-5 melanoma
SF-295 CNS = test system: SF-295 CNS
MCF7 breast = test system: MCF7 breast
SK-MEL-28 melanoma = test system: SK-MEL-28 melanoma
RXF 393 renal = test system: RXF 393 renal
COLO 205 colon = test system: COLO 205 colon
EKVX NSCLC = test system: EKVX NSCLC
NCI/ADR-RES ovarian = test system: NCI/ADR-RES ovarian
SK-OV-3 ovarian = test system: SK-OV-3 ovarian
HCC-2998 colon = test system: HCC-2998 colon
HCT-15 colon = test system: HCT-15 colon

SMILES | TGI (K-562 leukemia) | TGI (786-0 renal) | TGI (MDA-N) | TGI (SNB-19 CNS) | TGI (MDA-MB-435) | TGI (SK-MEL-5 melanoma) | TGI (SF-295 CNS) | TGI (MCF7 breast) | TGI (SK-MEL-28 melanoma) | TGI (RXF 393 renal) | TGI (COLO 205 colon) | TGI (EKVX NSCLC) | TGI (NCI/ADR-RES ovarian) | TGI (SK-OV-3 ovarian) | TGI (HCC-2998 colon) | TGI (HCT-15 colon) | GI50 (MDA-MB-435)
CCOC(=O)c1c(NC(=O)c2ccc(Br)cc2)sc2c1CCCC2 | > 100 µM | > 100 µM | > 100 µM | > 100 µM | > 100 µM | > 100 µM | > 100 µM | > 100 µM | > 100 µM | > 100 µM | > 100 µM | > 100 µM | – | – | – | – | –
CC1=C(C)C(=O)C(C2=C(C3=CC(=O)C(C)=C(C)C3=O)C(=O)c3ccccc3C2=O)=CC1=O | 19.7 µM | 5.74 µM | 3.6 µM | 25.8 µM | 3.05 µM | 12.6 µM | 27.9 µM | – | 5.03 µM | 3.38 µM | 3.93 µM | 5.81 µM | 36.7 µM | 30.5 µM | 16.3 µM | 5.53 µM | –
Cc1cc(C(O)CNC(C)CCn2cnc3c2c(=O)n(C)c(=O)n3C)ccc1O (stereo unspecified) | > 100 µM | > 100 µM | – | > 100 µM | > 100 µM | > 100 µM | > 100 µM | > 100 µM | > 100 µM | > 100 µM | > 100 µM | > 100 µM | > 100 µM | > 100 µM | – | > 100 µM | –
CCSC12CC3c4cccc5c4C(CN5C(=O)c4ccccc4)CC3(O1)N(C)C2=O (stereo unspecified) | > 100 µM | > 100 µM | 81.6 µM | > 100 µM | > 100 µM | 28.9 µM | > 100 µM | – | > 100 µM | > 100 µM | 75 µM | 83.4 µM | > 100 µM | > 100 µM | – | > 100 µM | –
CN(C)Cc1[nH]c2ccccc2c1C(=O)c1ccccc1 | > 100 µM | > 100 µM | – | > 100 µM | – | > 100 µM | > 100 µM | – | > 100 µM | – | > 100 µM | – | – | – | > 100 µM | > 100 µM | –
COc1ccc(C2C(Cl)C(=O)N2NC(=O)c2ccccc2O)cc1OC (stereo unspecified) | > 100 µM | > 100 µM | – | > 100 µM | – | > 100 µM | > 100 µM | – | > 100 µM | > 100 µM | – | – | – | > 100 µM | – | > 100 µM | –
CN(C)C(=O)Oc1ccc(C(=S)Nc2ccccc2)cc1Br | > 100 µM | > 100 µM | 57.4 µM | > 100 µM | 43.9 µM | 32.2 µM | > 100 µM | > 100 µM | > 100 µM | – | 55.3 µM | > 100 µM | 63.9 µM | > 100 µM | > 100 µM | > 100 µM | –
N#Cc1c(N2CCOCC2)ncn(-c2ccc(Cl)cc2)c1=O | > 100 µM | > 100 µM | > 100 µM | > 100 µM | > 100 µM | > 100 µM | > 100 µM | > 100 µM | > 100 µM | – | > 100 µM | > 100 µM | > 100 µM | > 100 µM | > 100 µM | > 100 µM | –
c1cc(C[S+]2CCCC2)oc1C[S+]1CCCC1 | > 100 µM | > 100 µM | > 100 µM | > 100 µM | > 100 µM | > 100 µM | > 100 µM | – | > 100 µM | > 100 µM | > 100 µM | > 100 µM | > 100 µM | > 100 µM | > 100 µM | > 100 µM | –
CC(=O)O/N=C/c1cc2c(cc1Br)OCO2 | > 349 µM | > 349 µM | – | – | – | > 349 µM | > 349 µM | – | > 349 µM | > 349 µM | > 349 µM | > 349 µM | – | > 349 µM | > 349 µM | > 349 µM | –
CC#Cc1c(C#CC)c(OC)c2c(c1OC)C(=O)c1ccccc1C2=O | > 100 µM | > 100 µM | – | 71.4 µM | – | > 100 µM | 39.1 µM | – | > 100 µM | 55.1 µM | > 100 µM | > 100 µM | – | > 100 µM | > 100 µM | > 100 µM | –
Cc1ccc(F)c2c(=O)cc(-c3ccccc3)[nH]c12 | > 100 µM | > 100 µM | – | – | – | > 100 µM | > 100 µM | – | > 100 µM | > 100 µM | > 100 µM | – | – | > 100 µM | – | > 100 µM | –
CC1(C)N=C(Oc2ccccc2)n2nccc2N1 | > 100 µM | > 100 µM | – | > 100 µM | – | > 100 µM | > 100 µM | – | > 100 µM | > 100 µM | > 100 µM | > 100 µM | – | > 100 µM | > 100 µM | > 100 µM | –
CC(=O)Oc1cc(S(=O)(=O)Nc2n[nH]c(N)n2)c(S)cc1Cl | > 100 µM | > 100 µM | > 100 µM | > 100 µM | > 100 µM | > 100 µM | > 100 µM | > 100 µM | > 100 µM | – | > 100 µM | > 100 µM | > 100 µM | – | > 100 µM | > 100 µM | –
O=C1c2ccccc2C(=O)c2c(O)c(NCCNCCO)cc(O)c21 | 10.4 µM | 14.1 µM | – | 11.8 µM | – | 13.1 µM | 22.2 µM | – | 16.6 µM | 13.4 µM | – | 14.4 µM | – | – | 13.7 µM | 14.1 µM | –
C(=N/NC1=NCCN1)/c1c2ccccc2c(/C=N\NC2=NCCN2)c2ccccc12 | 3.63 µM and 4.43 µM and 1.7 µM | 1.86 µM and 1.87 µM | 0.69 µM and 1.18 µM | 0.458 µM and 0.922 µM and 2.15 µM | 0.271 µM and 0.477 µM | 0.214 µM and 0.896 µM and 0.761 µM | 1.98 µM and 2.11 µM and 2.71 µM | 0.788 µM and 3.14 µM and 3.88 µM | 1.01 µM and 1.08 µM and 0.685 µM | 0.829 µM and 2.08 µM and 0.596 µM | 0.366 µM and 0.609 µM and 1.41 µM | 2.32 µM and 2.94 µM and 1.57 µM | – | 0.526 µM and 1.82 µM and 3.48 µM | 0.439 µM and 0.47 µM and 0.658 µM | 214 µM | 0.155 µM
Cc1ccccc1NC(=O)CSc1nnc(Cc2ccccc2)o1 | > 100 µM | > 100 µM | – | – | – | > 100 µM | > 100 µM | – | > 100 µM | > 100 µM | > 100 µM | – | – | > 100 µM | > 100 µM | > 100 µM | –
NCCCCCNOCCCN | > 100 µM | > 100 µM | > 100 µM | > 100 µM | > 100 µM | > 100 µM | > 100 µM | – | > 100 µM | – | > 100 µM | > 100 µM | > 100 µM | > 100 µM | > 100 µM | > 100 µM | –
